# Measured values reported in ChEMBL document CHEMBL5696442, “Discovery of type II inhibitors of TGFβ-activated kinase 1 (TAK1) and mitogen-activated protein kinase kinase kinase kinase 2 (MAP4K2)” (J Med Chem, 2015).
# The source made the active and inactive calls. The calls are words filed in the database; no cut-off is given here.
# Tests used:
# [1] = biological target: Serine/threonine-protein kinase/endoribonuclease IRE1 (Homo sapiens) (UniProt O75460); assay: Inhibition of IRE1 Lys2 labeling site in human Huh-7 cells at 1 uM by KiNativ Profiling analysis relative to control; assay type: cell-based
# [2] = biological target: Mitogen-activated protein kinase 3 (Homo sapiens) (UniProt P27361); assay: Inhibition of Erk1 Lys2 labeling site harbouring DLKPSNLLINTTCDLK in human Huh-7 cell lysate at 1 uM by KiNativ Profiling analysis relative to control; assay type: subcellular
# [3] = biological target: Microtubule-associated serine/threonine-protein kinase 4 (Homo sapiens) (UniProt O15021); assay: Inhibition of MAST4 Lys2 labeling site in human Huh-7 cells at 1 uM by KiNativ Profiling analysis relative to control; assay type: cell-based
# [4] = biological target: T1, Serine/threonine-protein kinase STK11 (Homo sapiens) (UniProt Q15831); assay: Inhibition of LKB1 Lys2 labeling site in human A-375 cells at 0.5 uM by KiNativ Profiling analysis relative to control; assay type: cell-based
# T1 sequence (whole entry): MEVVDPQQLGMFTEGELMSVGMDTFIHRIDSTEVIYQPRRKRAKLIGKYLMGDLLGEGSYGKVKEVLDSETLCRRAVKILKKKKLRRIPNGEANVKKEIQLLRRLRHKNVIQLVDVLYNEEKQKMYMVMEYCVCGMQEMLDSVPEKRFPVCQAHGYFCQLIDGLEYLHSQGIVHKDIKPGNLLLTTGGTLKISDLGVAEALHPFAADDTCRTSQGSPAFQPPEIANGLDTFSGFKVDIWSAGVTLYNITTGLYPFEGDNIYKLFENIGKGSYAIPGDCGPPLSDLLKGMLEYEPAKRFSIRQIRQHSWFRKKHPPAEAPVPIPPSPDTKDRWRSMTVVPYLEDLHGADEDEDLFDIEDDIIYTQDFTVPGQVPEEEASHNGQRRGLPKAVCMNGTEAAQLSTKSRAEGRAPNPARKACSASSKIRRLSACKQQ
# [5] = biological target: Mitogen-activated protein kinase 11 (Homo sapiens) (UniProt Q15759); assay: Inhibition of p38 beta in human A-375 cells at 5 uM by KiNativ Profiling analysis relative to control; assay type: cell-based
# [6] = biological target: Serine/threonine-protein kinase/endoribonuclease IRE1 (Homo sapiens) (UniProt O75460); assay: Inhibition of ERN1 (unknown origin) at 1 uM by Ambit Kinomescan binding assay relative to control; values are per cent of control
# [7] = biological target: Cyclin-dependent kinase 2 homolog (Plasmodium falciparum (isolate K1 / Thailand)) (UniProt Q07785); assay: Inhibition of Plasmodium falciparum PK5 at 1 uM by Ambit Kinomescan binding assay relative to control; values are per cent of control
# [8] = biological target: T2, Dual specificity mitogen-activated protein kinase kinase 3 (Homo sapiens) (UniProt P46734); assay: Inhibition of MEK3 (unknown origin) at 10 uM by Ambit Kinomescan binding assay
# T2 sequence (whole entry): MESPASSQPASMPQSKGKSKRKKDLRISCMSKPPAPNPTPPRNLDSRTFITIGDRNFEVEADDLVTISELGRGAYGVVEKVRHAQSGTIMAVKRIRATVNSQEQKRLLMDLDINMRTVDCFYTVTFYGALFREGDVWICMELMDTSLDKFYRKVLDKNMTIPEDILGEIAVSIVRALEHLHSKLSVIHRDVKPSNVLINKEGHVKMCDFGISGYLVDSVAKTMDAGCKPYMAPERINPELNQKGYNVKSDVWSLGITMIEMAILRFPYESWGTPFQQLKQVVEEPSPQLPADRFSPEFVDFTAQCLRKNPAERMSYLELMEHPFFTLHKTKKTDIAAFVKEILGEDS
# [9] = biological target: Ribosomal protein S6 kinase alpha-1 (Homo sapiens) (UniProt Q15418); assay: Inhibition of RSK1 domain1 Lys1 labeling site in human A-375 cells at 5 uM by KiNativ Profiling analysis relative to control; assay type: cell-based
# [10] = biological target: Calcium/calmodulin-dependent protein kinase type 1 (Homo sapiens) (UniProt Q14012); assay: Inhibition of CaMK1a K1 labeling site in human Huh-7 cells at 1 uM by KiNativ Profiling analysis relative to control; assay type: cell-based
# [11] = biological target: Mitogen-activated protein kinase kinase kinase 20 (Homo sapiens, UniProt Q9NYL2); assay: Inhibition of ZAK K1 labeling site in human Huh-7 cells at 1 uM by KiNativ Profiling analysis relative to control; assay type: cell-based
# [12] = biological target: Serine/threonine-protein kinase 25 (Homo sapiens) (UniProt O00506); assay: Inhibition of YSK1 ATP labeling site in human Huh-7 cells at 10 uM by KiNativ Profiling analysis relative to control; assay type: cell-based
# [13] = biological target: T3, Serine/threonine-protein kinase greatwall (Homo sapiens) (UniProt Q96GX5); assay: Inhibition of MASTL ATP labeling site in human Huh-7 cells at 10 uM by KiNativ Profiling analysis relative to control; assay type: cell-based
# T3 sequence (whole entry): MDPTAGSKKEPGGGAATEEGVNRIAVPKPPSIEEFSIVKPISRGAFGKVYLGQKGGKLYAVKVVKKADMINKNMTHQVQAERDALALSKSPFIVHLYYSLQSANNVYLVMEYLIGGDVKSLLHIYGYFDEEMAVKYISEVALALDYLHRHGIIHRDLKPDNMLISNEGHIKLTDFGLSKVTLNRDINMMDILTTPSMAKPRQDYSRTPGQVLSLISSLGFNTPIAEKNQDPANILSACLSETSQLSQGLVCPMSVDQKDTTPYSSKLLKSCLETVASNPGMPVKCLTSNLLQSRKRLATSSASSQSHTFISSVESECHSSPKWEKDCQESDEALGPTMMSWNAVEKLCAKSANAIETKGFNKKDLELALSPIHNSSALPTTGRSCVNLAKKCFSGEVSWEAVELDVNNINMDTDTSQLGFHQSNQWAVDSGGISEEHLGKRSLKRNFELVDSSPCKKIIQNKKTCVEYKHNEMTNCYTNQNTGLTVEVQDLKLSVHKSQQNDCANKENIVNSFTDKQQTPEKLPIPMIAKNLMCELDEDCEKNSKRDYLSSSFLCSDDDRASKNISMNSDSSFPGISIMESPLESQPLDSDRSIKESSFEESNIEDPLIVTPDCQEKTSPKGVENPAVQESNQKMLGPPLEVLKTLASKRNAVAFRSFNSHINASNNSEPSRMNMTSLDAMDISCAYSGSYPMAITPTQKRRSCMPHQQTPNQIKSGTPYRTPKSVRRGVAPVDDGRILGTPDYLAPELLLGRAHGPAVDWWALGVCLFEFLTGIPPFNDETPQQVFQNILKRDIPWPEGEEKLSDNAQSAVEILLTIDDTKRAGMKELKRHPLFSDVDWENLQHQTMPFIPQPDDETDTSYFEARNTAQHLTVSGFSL
# [14] = biological target: Tyrosine-protein kinase Lck (Homo sapiens) (UniProt P06239); assay: Inhibition of LCK (unknown origin) at 10 uM by Ambit Kinomescan binding assay relative to control
# Sequence of Tyrosine-protein kinase Lck (Homo sapiens) (P06239 2-509 limits assumed): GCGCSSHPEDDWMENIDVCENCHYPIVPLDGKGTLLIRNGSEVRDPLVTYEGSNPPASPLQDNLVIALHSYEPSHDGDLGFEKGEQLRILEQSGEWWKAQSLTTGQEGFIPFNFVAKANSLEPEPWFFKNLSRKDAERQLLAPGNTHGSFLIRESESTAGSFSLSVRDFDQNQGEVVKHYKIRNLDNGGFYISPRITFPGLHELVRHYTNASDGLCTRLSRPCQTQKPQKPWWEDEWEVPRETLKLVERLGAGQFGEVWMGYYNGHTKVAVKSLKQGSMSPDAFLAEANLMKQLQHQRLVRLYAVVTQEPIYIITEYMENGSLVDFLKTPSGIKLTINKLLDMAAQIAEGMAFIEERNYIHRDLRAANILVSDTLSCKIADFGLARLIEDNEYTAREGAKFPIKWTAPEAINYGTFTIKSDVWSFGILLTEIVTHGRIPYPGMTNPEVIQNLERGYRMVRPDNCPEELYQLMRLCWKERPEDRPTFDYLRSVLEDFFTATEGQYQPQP
# Sequence of Serine/threonine-protein kinase/endoribonuclease IRE1 (Homo sapiens) (O75460 19-977 limits assumed): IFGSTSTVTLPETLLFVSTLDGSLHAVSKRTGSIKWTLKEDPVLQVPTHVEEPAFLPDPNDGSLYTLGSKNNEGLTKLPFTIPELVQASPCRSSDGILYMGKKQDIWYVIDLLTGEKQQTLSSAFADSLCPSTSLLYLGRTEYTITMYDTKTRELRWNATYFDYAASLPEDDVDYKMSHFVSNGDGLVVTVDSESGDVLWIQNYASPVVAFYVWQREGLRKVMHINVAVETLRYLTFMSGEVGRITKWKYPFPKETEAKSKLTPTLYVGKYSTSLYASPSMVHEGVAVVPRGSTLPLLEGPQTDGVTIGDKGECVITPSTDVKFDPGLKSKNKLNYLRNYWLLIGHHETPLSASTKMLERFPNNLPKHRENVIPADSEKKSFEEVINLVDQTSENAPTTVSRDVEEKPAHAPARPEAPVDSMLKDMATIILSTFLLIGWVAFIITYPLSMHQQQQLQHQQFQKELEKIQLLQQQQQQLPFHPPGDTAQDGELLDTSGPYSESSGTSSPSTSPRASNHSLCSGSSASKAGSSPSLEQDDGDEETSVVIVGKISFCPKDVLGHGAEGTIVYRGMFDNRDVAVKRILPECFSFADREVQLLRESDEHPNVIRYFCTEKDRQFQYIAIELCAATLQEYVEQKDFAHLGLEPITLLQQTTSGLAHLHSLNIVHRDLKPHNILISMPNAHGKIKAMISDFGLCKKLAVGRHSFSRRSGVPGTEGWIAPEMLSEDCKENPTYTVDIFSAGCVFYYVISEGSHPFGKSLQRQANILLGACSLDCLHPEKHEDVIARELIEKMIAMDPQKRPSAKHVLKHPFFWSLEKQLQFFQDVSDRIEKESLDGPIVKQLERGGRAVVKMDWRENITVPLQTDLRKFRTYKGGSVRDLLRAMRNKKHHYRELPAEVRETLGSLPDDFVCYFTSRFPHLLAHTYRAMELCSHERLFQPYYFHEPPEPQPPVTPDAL
# Sequence of Calcium/calmodulin-dependent protein kinase type 1 (Homo sapiens) (Q14012 whole entry, looked up): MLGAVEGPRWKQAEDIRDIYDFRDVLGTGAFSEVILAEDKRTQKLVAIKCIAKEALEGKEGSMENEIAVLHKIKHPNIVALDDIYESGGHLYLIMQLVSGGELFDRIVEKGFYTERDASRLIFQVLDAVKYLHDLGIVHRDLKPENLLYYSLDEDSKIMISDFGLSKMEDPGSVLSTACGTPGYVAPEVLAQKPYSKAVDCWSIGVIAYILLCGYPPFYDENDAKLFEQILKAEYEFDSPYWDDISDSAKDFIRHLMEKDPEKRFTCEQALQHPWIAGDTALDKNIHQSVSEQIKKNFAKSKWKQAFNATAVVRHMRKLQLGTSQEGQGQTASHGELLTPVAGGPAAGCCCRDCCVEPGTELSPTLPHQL
# Sequence of Serine/threonine-protein kinase 25 (Homo sapiens) (O00506 whole entry, looked up): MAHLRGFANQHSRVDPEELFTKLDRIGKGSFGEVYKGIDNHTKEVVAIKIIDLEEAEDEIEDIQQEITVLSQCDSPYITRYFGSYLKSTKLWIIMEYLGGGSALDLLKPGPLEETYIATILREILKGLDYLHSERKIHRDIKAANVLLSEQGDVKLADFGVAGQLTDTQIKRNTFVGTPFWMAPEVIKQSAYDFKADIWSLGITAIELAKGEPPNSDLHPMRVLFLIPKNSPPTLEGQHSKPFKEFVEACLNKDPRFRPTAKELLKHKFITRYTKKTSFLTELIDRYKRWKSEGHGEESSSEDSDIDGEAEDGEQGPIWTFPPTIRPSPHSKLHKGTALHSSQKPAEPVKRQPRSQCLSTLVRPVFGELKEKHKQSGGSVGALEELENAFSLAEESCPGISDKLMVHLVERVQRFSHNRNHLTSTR
# Sequence of Mitogen-activated protein kinase kinase kinase 20 (Q9NYL2 2-800 limits assumed): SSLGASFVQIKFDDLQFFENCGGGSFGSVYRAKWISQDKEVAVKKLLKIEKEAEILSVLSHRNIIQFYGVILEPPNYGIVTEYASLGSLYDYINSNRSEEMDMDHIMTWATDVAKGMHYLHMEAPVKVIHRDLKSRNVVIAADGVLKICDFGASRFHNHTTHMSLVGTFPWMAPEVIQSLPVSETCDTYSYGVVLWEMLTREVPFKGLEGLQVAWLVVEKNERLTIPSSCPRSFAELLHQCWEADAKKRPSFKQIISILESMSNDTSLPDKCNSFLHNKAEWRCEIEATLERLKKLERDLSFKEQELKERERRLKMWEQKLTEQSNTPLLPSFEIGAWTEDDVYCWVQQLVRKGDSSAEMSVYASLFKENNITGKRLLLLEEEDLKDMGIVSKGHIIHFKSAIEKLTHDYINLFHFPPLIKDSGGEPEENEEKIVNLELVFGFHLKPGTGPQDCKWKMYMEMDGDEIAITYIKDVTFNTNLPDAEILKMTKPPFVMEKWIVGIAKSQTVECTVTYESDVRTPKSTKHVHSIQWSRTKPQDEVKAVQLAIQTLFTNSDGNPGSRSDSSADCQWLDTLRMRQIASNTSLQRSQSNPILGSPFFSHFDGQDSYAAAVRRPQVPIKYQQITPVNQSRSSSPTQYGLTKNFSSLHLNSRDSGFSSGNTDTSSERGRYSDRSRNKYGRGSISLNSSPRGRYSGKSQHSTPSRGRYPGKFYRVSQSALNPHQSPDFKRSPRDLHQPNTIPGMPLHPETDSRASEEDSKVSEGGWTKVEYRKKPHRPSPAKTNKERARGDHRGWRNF
# Sequence of Mitogen-activated protein kinase 3 (Homo sapiens) (P27361 whole entry): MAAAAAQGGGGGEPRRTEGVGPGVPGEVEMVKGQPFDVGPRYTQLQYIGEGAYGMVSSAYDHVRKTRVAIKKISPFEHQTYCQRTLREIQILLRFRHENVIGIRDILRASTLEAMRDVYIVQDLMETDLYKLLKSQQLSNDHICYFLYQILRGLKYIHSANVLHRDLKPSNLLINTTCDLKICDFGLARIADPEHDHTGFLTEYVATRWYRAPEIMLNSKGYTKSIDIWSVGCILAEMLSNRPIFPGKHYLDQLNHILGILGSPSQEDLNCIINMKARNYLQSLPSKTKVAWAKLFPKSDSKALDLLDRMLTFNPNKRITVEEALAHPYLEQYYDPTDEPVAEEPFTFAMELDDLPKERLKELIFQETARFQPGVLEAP
# Sequence of Mitogen-activated protein kinase 11 (Homo sapiens) (Q15759 whole entry): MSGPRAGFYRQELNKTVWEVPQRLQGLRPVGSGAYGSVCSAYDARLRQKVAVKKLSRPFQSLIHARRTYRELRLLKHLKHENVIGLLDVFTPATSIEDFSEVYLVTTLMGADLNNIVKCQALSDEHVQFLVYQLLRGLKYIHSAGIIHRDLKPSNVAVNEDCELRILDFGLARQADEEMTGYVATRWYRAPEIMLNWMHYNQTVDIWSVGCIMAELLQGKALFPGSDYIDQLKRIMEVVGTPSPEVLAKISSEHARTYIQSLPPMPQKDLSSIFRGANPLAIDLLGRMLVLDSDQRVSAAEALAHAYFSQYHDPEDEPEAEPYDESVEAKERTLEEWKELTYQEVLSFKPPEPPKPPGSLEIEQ
# Sequence of Cyclin-dependent kinase 2 homolog (Plasmodium falciparum (isolate K1 / Thailand)) (Q07785 whole entry): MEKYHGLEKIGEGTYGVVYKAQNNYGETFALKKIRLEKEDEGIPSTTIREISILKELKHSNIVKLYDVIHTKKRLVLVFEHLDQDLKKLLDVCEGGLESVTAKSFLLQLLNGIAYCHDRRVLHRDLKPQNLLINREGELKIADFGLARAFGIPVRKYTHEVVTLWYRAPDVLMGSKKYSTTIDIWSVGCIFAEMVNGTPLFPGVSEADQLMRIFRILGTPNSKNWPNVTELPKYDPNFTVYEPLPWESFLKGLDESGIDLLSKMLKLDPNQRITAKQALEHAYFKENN
# Sequence of Ribosomal protein S6 kinase alpha-1 (Homo sapiens) (Q15418 whole entry, the tested form may be a part): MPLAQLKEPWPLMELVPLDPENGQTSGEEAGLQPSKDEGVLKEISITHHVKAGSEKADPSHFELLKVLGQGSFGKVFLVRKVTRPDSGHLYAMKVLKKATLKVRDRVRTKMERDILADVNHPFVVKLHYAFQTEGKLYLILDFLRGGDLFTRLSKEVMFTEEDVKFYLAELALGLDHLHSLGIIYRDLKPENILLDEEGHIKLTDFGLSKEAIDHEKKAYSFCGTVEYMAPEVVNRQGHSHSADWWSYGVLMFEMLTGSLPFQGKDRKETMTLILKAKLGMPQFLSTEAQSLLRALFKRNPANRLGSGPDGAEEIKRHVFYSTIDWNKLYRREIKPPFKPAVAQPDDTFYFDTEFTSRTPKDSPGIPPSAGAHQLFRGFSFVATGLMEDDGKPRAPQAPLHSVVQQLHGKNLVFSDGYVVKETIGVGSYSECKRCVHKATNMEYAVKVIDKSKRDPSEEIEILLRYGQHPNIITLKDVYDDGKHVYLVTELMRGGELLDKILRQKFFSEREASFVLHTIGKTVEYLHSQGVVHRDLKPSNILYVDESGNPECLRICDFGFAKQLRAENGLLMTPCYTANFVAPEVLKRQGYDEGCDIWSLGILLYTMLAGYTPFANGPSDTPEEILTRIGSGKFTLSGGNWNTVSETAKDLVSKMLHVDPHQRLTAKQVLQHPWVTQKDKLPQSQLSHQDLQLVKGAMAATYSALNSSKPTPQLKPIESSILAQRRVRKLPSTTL
smiles,measurement,setting,value
CNc1cc(Oc2cc(C(=O)Nc3cc(N4CCN(C)CC4)cc(C(F)(F)F)c3)ccc2C)ncn1,inhibition,[1],-9.9%
same,inhibition,[2],-4.1%
same,inhibition,[3],30.2%
CCN1CCN(Cc2ccc(NC(=O)c3ccc(C)c(/C=C/c4cnc5[nH]ccc5c4OC)c3)cc2C(F)(F)F)CC1,inhibition,[4],32.2%
same,inhibition,[5],79.9%
same,residual activity,[6],100%
same,residual activity,[7],100%
CCN1CCN(Cc2ccc(NC(=O)c3ccc(C)c(Oc4ccnc5[nH]ccc45)c3)cc2C(F)(F)F)CC1,inhibition,[8],inactive
same,inhibition,[9],-8.6%
same,inhibition,[10],19%
same,inhibition,[11],50.3%
same,inhibition,[12],25.3%
same,inhibition,[13],3.9%
same,inhibition,[14],0.8%
